# Data as given in patent US11630106B2, “Diagnostic test for distinguishing the smoking status of a subject” (PHILIP MORRIS PRODUCTS S.A., priority 2017, dated 2023).
# Where two headings read alike, the source gives them in different places.
# Assays:
# [1] = cited from earlier work
# [2] = mice; cited from earlier work
# [3] = 24-hour urine, cited from earlier work
# [4] = cited from earlier work; remark: listed apart in the source
# [5] = Randomized, controlled, open-label, 3-arm study (CC, SA, SW): total NNAL, CEMA and free cotinine measured in urine; format: in vivo, human; settings: for Free Cotinine (ng/mL) SA: SA arm; for concentration at 2 day: human, inhaled
# Description: The study included healthy smokers switching to a heat-not-burn (smoke-free alternative (SW)) product or those observing smoking abstinence (SA), compared with continuing to use CC, for 5 days in confinement and prolonged by 85 days in an ambulatory setting. This was an ad libitum smoking study. Baseline measurements are taken by allowing the subject to smoke their chosen brand of conventional cigarette for 2 days. After this 2 day period, the subject is then elected to continue smoking conventional cigarettes, to switch to a smoke-free alternative or to abstain from smoking. The investigational period then begins. Methods for measuring each of the metabolites are described in Haziza et al. (2017) Data in Brief 10, 283-293.
# During the confinement period, compliance to product/regimen allocation (exclusive use of smoke-free alternative and CC in SW and CC arms, respectively, and full abstinence from smoking in the SA arm) was ensured by strict distribution of each tobacco stick/CC when requested by the subject. During the ambulatory period, the subjects randomized to the SW arm were instructed to exclusively use HNB products and subjects randomized to the SA arm were instructed to abstain from smoking.
# Furthermore, the data are represented as boxplots in the figures below. The bottom of the box is the first quartile (value below which 25% of the observations lie), the top is the third quartile (value below which 75% of the observations lie) and the middle bar is the median of the observations. The whiskers extend to the minimum observed value and maximum observe value respectively.
# [6] = cited from earlier work; remark: listed apart in the source
# [7] = cited from earlier work; for levels of total NNAL: smoking cessation study
# [8] = intravenous infusion of nicotine in abstinent adult smokers
# [9] = consumers of conventional cigarettes
# [10] = consumers of smoke-free alternatives
# [11] = 15 CPD during 5-day confinement
# [12] = 20 CPD during 5-day confinement
structure (smiles),measurement,setting,value
CN1C(=O)[C@H](O)C[C@H]1c1cccnc1 (relative stereo) [trans-3′-hydroxycotinine],total clearance,[1]; in vivo,about 82 mL min-1
same,half-life,[1]; [8],6.6 h
same,share of the dose of nicotine accounted for by the metabolite,[2],40-60%
"CC(=O)N[C@@H](CSCCC#N)C(=O)O [CEMA, 2-cyanoethylmercapturic acid]","baseline CEMA, range",[3]; [9],83-115 ng/mg creatinine
same,"baseline CEMA, value in brackets",[3]; [9],98 ng/mg creatinine
same,average increase at day 5 compared to baseline,[3]; [9],4.2%
same,"change at day 5 compared to baseline, range",[3]; [9],−4% to 12%
same,"CEMA at day 5, range",[3]; [9],85-115 ng/mg creatinine
same,"CEMA at day 5, value in brackets",[3]; [9],99.5 ng/mg creatinine
same,"baseline CEMA, range",[3]; [10],85-112 ng/mg creatinine
same,"baseline CEMA, value in brackets",[3]; [10],98 ng/mg creatinine
same,average decrease at day 5 compared to baseline,[3]; [10],−86%
same,"change at day 5 compared to baseline, range",[3]; [10],−87% to −85%
same,"CEMA at day 5, range",[3]; [10],11-15 ng/mg creatinine
same,"CEMA at day 5, value in brackets",[3]; [10],13 ng/mg creatinine
same,"baseline CEMA, range",[3]; smoking abstainers,89-119 ng/mg creatinine
same,"baseline CEMA, value in brackets",[3]; smoking abstainers,103 ng/mg creatinine
same,average decrease at day 5 compared to baseline,[3]; smoking abstainers,−86%
same,"decrease at day 5 compared to baseline, range",[3]; smoking abstainers,−88 to −85%
same,"CEMA at day 5, range",[3]; smoking abstainers,10-15 ng/mg creatinine
same,"CEMA at day 5, value in brackets",[3]; smoking abstainers,12 ng/mg creatinine
same,levels of urinary CEMA,[4]; 0 CPD during 5-day confinement,38.3 μg/24 h
same,levels of urinary CEMA,[4]; 5 CPD during 5-day confinement,93.2 μg/24 h
same,levels of urinary CEMA,[4]; [11],168.0 μg/24 h
same,levels of urinary CEMA,[4]; [12],218.0 μg/24 h
same,CEMA excreted (mean±SD),[4]; non-smokers,4.6 ± 35 µg/L
same,"CEMA excreted (second value, 'or')",[4]; non-smokers,1.9 µg/L
same,"urinary excretion of CEMA, range",[4]; non-smokers,below 2 ng/mL
same,CEMA excreted (mean±SD),[4]; smokers,187 ± 181 µg/L
same,"CEMA excreted (second value, 'or')",[4]; smokers,184 µg/L
same,"urinary excretion of CEMA, range",[4]; smokers,20 to 205 ng/mL
same,lowering of CEMA levels in urine,[4]; smoking cessation studies of 5 to 8 days,7- to 10 fold
"CN1C(=O)CC[C@H]1c1cccnc1 [Free Cotinine, cotinine]",Free Cotinine (ng/mL) SA,"[5]; Day 2, IQR, listed as cotinine",339 to 959 ng/mL
same,Free Cotinine (ng/mL) SA,"[5]; Day 2, IQR, listed as free cotinine",128 to 313 ng/mL
same,concentration at 2 day,"[5]; SW arm, Day 2, IQR, read-out: Free Cotinine (ng/mL) SW",546 to 1160 ng/mL
same,concentration at 2 day,"[5]; day 2, read-out: cotinine levels in conventional cigarette smokers",459 to 1350 ng/mL
same,cotinine levels indicative of heavy smoker status,[6]; consuming more than 20 cigarettes a day,above 300 ng/mL
same,cotinine levels indicative of no active smoking,[6]; in vivo,< 10 ng/mL
same,cotinine levels in active smokers,[6]; saliva,≥ 100 ng/mL
same,detectability after smoking abstinence,"[6]; urine, saliva or blood","no longer detectable in urine, saliva or blood after about two days of smoking abstinence"
same,cotinine levels in active smokers,[6]; urine,≥ 500 ng/mL
same,in vivo half-life,[1]; in vivo,about 20 hours
same,total clearance,[1]; in vivo,45 mL/min
same,half-life,[1]; [8],17.5 h
same,share of the dose of nicotine accounted for by the metabolite,[2],about 15%
O=NN1CCC[C@H]1c1cccnc1 [NNN],detectability in the urine of non-smokers,[7],Neither NNAL nor NNN are in principle detectable
"CN(CCCC(O)c1cccnc1)N=O (stereo not shown) [Total NNAL, 4-(methylnitrosamino)-1-(3-pyridyl)-1-butanol]",Total NNAL (pg/mL) SW,"[5]; SW arm, Day 5, IQR",17 to 41 pg/mL
same,total NNAL levels in smoking abstainers,[5]; between day 5 and day 30,2.5 to 46 pg/mL
same,"baseline total NNAL, range",[3]; [9],84-131 pg/mg creatinine
same,"baseline total NNAL, value in brackets",[3]; [9],105 pg/mg creatinine
same,average increase at day 5 compared to baseline,[3]; [9],3.9%
same,"change at day 5 compared to baseline, range",[3]; [9],−2.8% to 10.5%
same,"total NNAL at day 5, range",[3]; [9],85-133 pg/mg creatinine
same,"total NNAL at day 5, value in brackets",[3]; [9],107 pg/mg creatinine
same,"baseline total NNAL, range",[3]; [10],95-129 pg/mg creatinine
same,"baseline total NNAL, value in brackets",[3]; [10],111 pg/mg creatinine
same,average decrease at day 5 compared to baseline,[3]; [10],−54%
same,"change at day 5 compared to baseline, range",[3]; [10],−57% to −51%
same,"total NNAL at day 5, range",[3]; [10],42-58 pg/mg creatinine
same,"total NNAL at day 5, value in brackets",[3]; [10],49 pg/mg creatinine
same,"baseline total NNAL, range",[3]; smoking abstainers,94-150 pg/mg creatinine
same,"baseline total NNAL, value in brackets",[3]; smoking abstainers,119 pg/mg creatinine
same,average decrease at day 5 compared to baseline,[3]; smoking abstainers,−63.9%
same,"decrease at day 5 compared to baseline, range",[3]; smoking abstainers,−67 to −61%
same,"total NNAL at day 5, range",[3]; smoking abstainers,31-54 pg/mg creatinine
same,"total NNAL at day 5, value in brackets",[3]; smoking abstainers,41 pg/mg creatinine
same,levels of urinary NNAL,[7]; 0 CPD during 5-day confinement,311 ng/24 h
same,levels of urinary NNAL,[7]; 5 CPD during 5-day confinement,422 ng/24 h
same,levels of urinary NNAL,[7]; [11],549 ng/24 h
same,levels of urinary NNAL,[7]; [12],624 ng/24 h
same,levels of total NNAL,[7]; after 28 days,0.26 nmol/24 h
same,levels of total NNAL,[7]; after 42 days,0.2 nmol/24 h
same,levels of total NNAL,[7]; baseline,2.70 nmol/24 h
same,levels of total NNAL,[7]; day 56,0.13 nmol/24 h
same,decrease of NNAL levels,[7]; smoking cessation/abstinence studies lasting 3 to 8 days,3- to 4 fold
same,detectability in the urine of non-smokers,[7],Neither NNAL nor NNN are in principle detectable
same,urine levels in non-smokers using other tobacco or nicotine replacement products or exposed to second-hand smoke,[7]; urine,~0.1 nmol
same,half-life,"[7]; usually measured in the urine, estimated",17 h
C[N+]1([O-])CCC[C@H]1c1cccnc1 (stereo partly shown) [nicotine-1′-N-oxide],share of the nicotine absorbed by smokers (minor metabolite),[1]; in vivo,4-7%
CN1CCCC1c1cccnc1 (stereo not shown) [nicotine],half-life,"[1]; in vivo, iv",2.3 h
same,share of the inhaled amount metabolized by the liver (first pass effect),[1]; in vivo,80-90%
same,total clearance,[1]; in vivo,about 1200 mL min-1
